Measurements: PubChem BioAssay AID1259407 (Chemical Carcinogenesis Research Information System (CCRIS), 2018)
Calls of active or inactive are those of the source. No rule for the calls is given here.

Tested on: CCRIS mutagenicity, Ames/micronucleus/aberration tests
Assay: CCRIS mutagenicity studies
[1] = Test System: AMES SALMONELLA TYPHIMURIUM, Strain/Indicator: TA98, Metabolic Activation: NONE, Method: STANDARD PLATE
[2] = Test System: AMES SALMONELLA TYPHIMURIUM, Strain/Indicator: TA100, Metabolic Activation: NONE, Method: PREINCUBATION
[3] = Test System: AMES SALMONELLA TYPHIMURIUM, Strain/Indicator: TA98, Metabolic Activation: RAT, LIVER, S-9, AROCLOR 1254, Method: STANDARD PLATE
[4] = Test System: AMES SALMONELLA TYPHIMURIUM, Strain/Indicator: TA100, Metabolic Activation: NONE, Method: STANDARD PLATE
[5] = Test System: AMES SALMONELLA TYPHIMURIUM, Strain/Indicator: TA100, Metabolic Activation: RAT, LIVER, S-9, AROCLOR 1254, Method: STANDARD PLATE
[6] = Test System: AMES SALMONELLA TYPHIMURIUM, Strain/Indicator: TA1535, Metabolic Activation: NONE, Method: STANDARD PLATE
[7] = Test System: AMES SALMONELLA TYPHIMURIUM, Strain/Indicator: TA1535, Metabolic Activation: RAT, LIVER, S-9, AROCLOR 1254, Method: STANDARD PLATE
[8] = Test System: AMES SALMONELLA TYPHIMURIUM, Strain/Indicator: TA1537, Metabolic Activation: NONE, Method: STANDARD PLATE
[9] = Test System: AMES SALMONELLA TYPHIMURIUM, Strain/Indicator: TA1537, Metabolic Activation: RAT, LIVER, S-9, AROCLOR 1254, Method: STANDARD PLATE
[10] = Test System: AMES SALMONELLA TYPHIMURIUM, Strain/Indicator: TA1538, Metabolic Activation: RAT, LIVER, S-9, AROCLOR 1254, Method: STANDARD PLATE
[11] = Test System: AMES SALMONELLA TYPHIMURIUM, Strain/Indicator: TA1535, Metabolic Activation: NONE, Method: PREINCUBATION
[12] = Test System: AMES SALMONELLA TYPHIMURIUM, Strain/Indicator: TA1537, Metabolic Activation: NONE, Method: PREINCUBATION

Measured: mutagenic call

O=C/C=C/c1ccc([N+](=O)[O-])o1
active: Test System: AMES SALMONELLA TYPHIMURIUM, Strain/Indicator: TA98(1,8-DNP6), Metabolic Activation: NONE, Method: STANDARD PLATE active; positive | Test System: AMES SALMONELLA TYPHIMURIUM, Strain/Indicator: TA98(1,8-DNP6), Metabolic Activation: RAT, LIVER, S-9, 3-METHYLCHOLANTHRENE, Method: STANDARD PLATE active; positive | Test System: AMES SALMONELLA TYPHIMURIUM, Strain/Indicator: TA98(NR), Metabolic Activation: NONE, Method: STANDARD PLATE active; positive | Test System: AMES SALMONELLA TYPHIMURIUM, Strain/Indicator: TA98(NR), Metabolic Activation: RAT, LIVER, S-9, 3-METHYLCHOLANTHRENE, Method: STANDARD PLATE active; positive | [1] active; positive | Test System: AMES SALMONELLA TYPHIMURIUM, Strain/Indicator: TA98, Metabolic Activation: RAT, LIVER, S-9, 3-METHYLCHOLANTHRENE, Method: STANDARD PLATE active; positive | Test System: AMES SALMONELLA TYPHIMURIUM, Strain/Indicator: TA100(1,8-DNP6), Metabolic Activation: NONE, Method: PREINCUBATION active; positive | Test System: AMES SALMONELLA TYPHIMURIUM, Strain/Indicator: TA100(1,8-DNP6), Metabolic Activation: RAT, LIVER, S-9, AROCLOR 1254, Method: PREINCUBATION active; positive | Test System: AMES SALMONELLA TYPHIMURIUM, Strain/Indicator: TA100(NR), Metabolic Activation: NONE, Method: PREINCUBATION active; positive | Test System: AMES SALMONELLA TYPHIMURIUM, Strain/Indicator: TA100(NR), Metabolic Activation: RAT, LIVER, S-9, AROCLOR 1254, Method: PREINCUBATION active; positive | [2] active; positive | Test System: AMES SALMONELLA TYPHIMURIUM, Strain/Indicator: TA100, Metabolic Activation: RAT, LIVER, S-9, AROCLOR 1254, Method: PREINCUBATION active; positive

O=P(O)(O)OC1C(OP(=O)(O)O)C(OP(=O)(O)O)C(OP(=O)(O)O)C(OP(=O)(O)O)C1OP(=O)(O)O (configuration not stated)
inactive: Test System: MOUSE LYMPHOMA, Strain/Indicator: L5178Y (TK+/TK-), Metabolic Activation: NONE, Method: SUSPENSION/PLATE inactive; negative. reevaluation of results: negative | Test System: MOUSE LYMPHOMA, Strain/Indicator: L5178Y (TK+/TK-), Metabolic Activation: RAT, LIVER, S-9, AROCLOR 1254, Method: SUSPENSION/PLATE inactive; negative. reevaluation of results: negative

[O-][Cl+]O
inactive: End Point: IN VIVO MICRONUCLEUS, Test System: BONE MARROW POLYCHROMATIC ERYTHROCYTES, Species: MOUSE, Strain/Sex: DDY/MALE, Route: ORAL inactive; negative; significant increase at 150 mg/kg | Test System: AMES SALMONELLA TYPHIMURIUM, Strain/Indicator: TA97, Metabolic Activation: NONE, Method: PREINCUBATION inactive; negative | Test System: AMES SALMONELLA TYPHIMURIUM, Strain/Indicator: TA97, Metabolic Activation: RAT, LIVER, S-9, AROCLOR 1254, Method: PREINCUBATION inactive; negative | Test System: AMES SALMONELLA TYPHIMURIUM, Strain/Indicator: TA102, Metabolic Activation: NONE, Method: PREINCUBATION inactive; negative | Test System: AMES SALMONELLA TYPHIMURIUM, Strain/Indicator: TA102, Metabolic Activation: RAT, LIVER, S-9, AROCLOR 1254, Method: PREINCUBATION inactive; negative

Nc1c(O)cccc1C(=O)O
inactive: [2] inactive; negative

Cc1cnc2cc3nc(N)n(C)c3c(C)c2n1
active: Test System: AMES SALMONELLA TYPHIMURIUM, Strain/Indicator: TA98, Metabolic Activation: RAT, LIVER, S-9, PCB, Method: PREINCUBATION active; positive | Test System: AMES SALMONELLA TYPHIMURIUM, Strain/Indicator: TA98, Metabolic Activation: S-9 active; positive | Test System: AMES SALMONELLA TYPHIMURIUM, Strain/Indicator: TA98, Metabolic Activation: S-9, Method: PREINCUBATION active; positive | Test System: AMES SALMONELLA TYPHIMURIUM, Strain/Indicator: YG1024, Metabolic Activation: RAT, LIVER, S-9, PCB, Method: PREINCUBATION active; positive | Test System: AMES SALMONELLA TYPHIMURIUM, Strain/Indicator: YG1024, Metabolic Activation: S-9 active; positive

Oc1ccc(O)c2c(O)c3ccccc3c(O)c12
inactive: [1] inactive; negative | [3] inactive; negative | [4] inactive; negative | [5] inactive; negative | [6] inactive; negative | [7] inactive; negative | [10] inactive; negative
active: [8] active; positive | [9] active; positive

C[n+]1c2ccccc2cc2c(N)cccc21
inactive: [11] inactive; negative | Test System: AMES SALMONELLA TYPHIMURIUM, Strain/Indicator: TA1535, Metabolic Activation: RAT, LIVER, S-9, TETRACHLOROBIPHENYL, Method: PREINCUBATION inactive; negative | Test System: AMES SALMONELLA TYPHIMURIUM, Strain/Indicator: TA1538, Metabolic Activation: NONE, Method: PREINCUBATION inactive; negative | Test System: AMES SALMONELLA TYPHIMURIUM, Strain/Indicator: TA1538, Metabolic Activation: RAT, LIVER, S-9, TETRACHLOROBIPHENYL, Method: PREINCUBATION inactive; negative
active: [12] active; positive | Test System: AMES SALMONELLA TYPHIMURIUM, Strain/Indicator: TA1537, Metabolic Activation: RAT, LIVER, S-9, TETRACHLOROBIPHENYL, Method: PREINCUBATION active; positive | Test System: AMES SALMONELLA TYPHIMURIUM, Strain/Indicator: TA1977, Metabolic Activation: NONE, Method: PREINCUBATION active; positive

CCNC(=O)Nc1ccc(OCC(O)CNC(C)(C)C)c(C(C)=O)c1 (configuration not stated)
inactive: Test System: AMES SALMONELLA TYPHIMURIUM, Strain/Indicator: TA98, Metabolic Activation: NONE, Method: PREINCUBATION inactive; negative | Test System: AMES SALMONELLA TYPHIMURIUM, Strain/Indicator: TA98, Metabolic Activation: RAT, LIVER, S-9, AROCLOR 1254 (10 OR 50 µL/PLATE), Method: PREINCUBATION inactive; negative | [2] inactive; negative | Test System: AMES SALMONELLA TYPHIMURIUM, Strain/Indicator: TA100, Metabolic Activation: RAT, LIVER, S-9, AROCLOR 1254 (10 OR 50 µL/PLATE), Method: PREINCUBATION inactive; negative | [11] inactive; negative | Test System: AMES SALMONELLA TYPHIMURIUM, Strain/Indicator: TA1535, Metabolic Activation: RAT, LIVER, S-9, AROCLOR 1254 (10 OR 50 µL/PLATE), Method: PREINCUBATION inactive; negative | [12] inactive; negative | Test System: AMES SALMONELLA TYPHIMURIUM, Strain/Indicator: TA1537, Metabolic Activation: RAT, LIVER, S-9, AROCLOR 1254 (10 OR 50 µL/PLATE), Method: PREINCUBATION inactive; negative | Test System: E. COLI, Strain/Indicator: WP2 UVRA, Metabolic Activation: NONE, Method: PREINCUBATION inactive; negative | Test System: E. COLI, Strain/Indicator: WP2 UVRA, Metabolic Activation: RAT, LIVER, S-9, AROCLOR 1254 (10 OR 50 µL/PLATE), Method: PREINCUBATION inactive; negative

CC(C)N(C(=O)SCC(Cl)=C(Cl)Cl)C(C)C
active: [3] active; positive | [5] active; positive | [7] active; positive
inactive: [1] inactive; negative | [4] inactive; negative | [6] inactive; negative | [8] inactive; negative | [9] inactive; negative | Test System: AMES SALMONELLA TYPHIMURIUM, Strain/Indicator: TA1538, Metabolic Activation: NONE, Method: STANDARD PLATE inactive; negative | [10] inactive; negative

ClCc1ccc(Br)cc1
inactive: [4] inactive; negative
